Test results from patent US8633167B2, “Method for the protection of trees” (Syngenta Crop Protection LLC, priority 2006, dated 2014).

Assays:
[1] = test system: coneworm, Dioryctria spp.; conditions: systemic activity in pine; cited from earlier work
Ips engravers beetles = experiment: Single-tree protection study (Example 2): Ips attack, tree mortality and gallery construction on standing loblolly pine; assay type: in vivo; conditions: for Mean # of Egg Galleries Total Number / Mean # of Egg Galleries With Brood No. / Mean # of Egg Galleries Without Brood No. / Mean Length of Egg Galleries Total Length / Mean Length of Egg Galleries With Brood cm / Mean Length of Egg Galleries Without Brood cm: bolts cut after tree mortality or at the end of the trial; for Mean # of Nuptial Chambers With Egg Galleries % of Total / Mean # of Nuptial Chambers Without Egg Galleries % of Total / Mean # of Nuptial Chambers Without Egg Galleries No. / Mean # of Nuptial Chambers with Egg Galleries No. / Mean Total # of Nuptial Chambers: bolts cut after tree mortality or the end of the trial
Description: (§1) Two 20-year-old, recently thinned loblolly pine plantations were selected on land owned by Temple-Inland Forest Products Corporation about 5 km south of Wells (Angelina County), Tex. Trees in one plantation were injected for use in a bolt study (Example 1). Trees in a 0.2 ha section of the second plantation were injected as part of a single-tree protection study (Example 2). A staging area also was set up in the second plantation where bolts from the first plantation were exposed to bark beetles and wood borers.
Loblolly pine, 15-20 cm DBH, were selected in the second plantation in March 2004. Each treatment (the same as those used in Example 1) was injected into four cardinal points about 0.3 m above the ground on each of 6 trees in April (16th-23rd) using the Arborjet Tree IV™ system. After 5 weeks post-injection (May 28), frills were cut with a hatchet into the sapwood between the injection points near the base of the tree. A cellulose sponge was inserted into each cut and loaded with 10 ml of a 4:1 mix of sodium N-methyldithiocarbamate (MS) (Woodfume®; Osmose, Inc., Buffalo, N.Y.) plus dimethyl sulfoxide (DMSO) (Aldrich Chemical) (Roton 1987, Strom et al. 2004). This method reduces resin to near zero in 1-2 weeks. The intent was to stress the tree and make it susceptible to attack by bark beetles without killing it.
Pheromone packets containing racemic ipsdienol + lanerione, ipsenol or cis-verbenol were attached (June 7) atop 3 m stakes evenly spaced in between and around the study trees to encourage attack by the three Ips engraver species. […] Thus, ipsdienol and cis-verbenol pheromone baits were deployed on all stakes on June 17th. The baits were changed every 4 weeks.
A clear panel of acetate (10 cm wide by 25 cm long) coated with Stickem Special® was attached 2 m high on standing trees after deployment of pheromone baits to monitor arrival of bark beetles. The traps were left in place for two weeks.
Three weeks after pheromone deployment (June 28), each tree was evaluated by marking a 30 cm section of bole at a height of 3 m. All visible Ips attacks and cerambycid egg niches were counted within the marked area. The number of trees with fading crowns also was recorded. Thereafter, the trees were evaluated weekly for crown fading. When mortality did occur, the trees were felled and two bolts taken and evaluated for attack success and gallery length as described in Example 1. All remaining trees were felled 66 days (Aug. 9) after initial pheromone deployment when no additional trees had died for 3 weeks. Treatment efficacy was determined by comparing tree survival, beetle attacks and egg gallery length on treated and untreated bolts. As before, data were transformed and analyzed by GLM and the Fisher's Protected LSD test using the Statview statistical program.

Cerambycid larvae = experiment: Bolt study (Example 1): cerambycid larval feeding in loblolly pine bolts cut after trunk injection; assay type: in vivo; conditions: for reduction of cerambycid feeding damage: May
Description: as §1
Seventy-five loblolly pine trees, Pinus taeda L., 15-20 cm diameter at breast height (DBH), were selected in March 2004. Each treatment was injected into four cardinal points about 0.3 m above the ground on each of 15 trees in April (16th-23rd) using the new Arborjet Tree IV™ microinfusion system (Arborjet, Inc. Woburn, Mass.). The treatments included: • 1) Emamectin benzoate (Denim®, 1.92% ai, Syngenta Crop Science)—Denim® was mixed 1:1 with methanol and applied at 18.6 ml solution per inch of tree diameter at breast height (DBH) (=0.2 g active per inch DBH). • 2) Check (untreated)
After 1 (May 24), 3 (July 19) and 5 (September) months post-injection, 5 trees of each treatment were felled and two 1.5 m long bolts were removed from the 3 m and 8 m heights of the bole. The bolts were transported to a nearby plantation that was recently thinned and contained fresh slash material. Each bolt was placed about 1 m apart on discarded, dry pine bolts to maximize surface area available for colonization as well as to discourage predation by ground and litter-inhabiting organisms. To facilitate timely bark beetle colonization, packets of bark beetle pheromones (racemic ipsdienol + lanerione combination, ipsenol or cis-verbenol; Phero Tech, Inc., Delta, BC, Canada) were attached separately to three 1 m stakes evenly spaced in the study area. Racemic ipsdienol and cis-verbenol were used with the second and third series of bolts deployed in July and September, respectively. The packets were removed after 2 weeks when signs of attacks (boring dust) were observed on most test bolts, signaling that naturally-produced pheromones were present.
Each series of bolts were retrieved about 3 weeks after deployment, after observing many cerambycid egg niches on the bark surface of most bolts. There was concern that if cerambycid larvae were allowed to develop too long, their feeding activity would obscure or obliterate the Ips galleries. Thus, each series of bolts were retrieved and stored temporarily in a TFS seedling cooler (˜45° F.) to slow cerambycid development until the bolts could be evaluated.
In the laboratory, two 10×50 cm strips (total=1000 cm^2) of bark were removed from each bolt. Several measurements were made relating to construction of nuptial chambers and egg galleries and development of brood: • 1) Number of unsuccessful attacks—penetration to phloem, but no egg galleries. • 2) Number of successful attacks—construction of nuptial chamber and at least one egg gallery extending from it. • 3) Number and lengths of egg galleries with brood galleries radiating from them. • 4) Number and lengths of egg galleries without brood galleries. • 5) Cerambycid activity, estimated by overlaying a 100 cm^2 grid over a portion of each bark strip and counting the number of squares overlapping area where cerambycid larvae had fed.
Treatment efficacy was determined by comparing Ips beetle attacks and egg gallery length and cerambycid feeding on treated and untreated bolts. The data were transformed by log10(x+1) to satisfy criteria for normality and homoscedasticity (Zar 1984) and analyzed by GLM and the Fishers Protected LSD test using the Statview statistical program.

## 4″-deoxy-4″-N-methylamino avermectin B1a/B1b [Emamectin]
[1]
  efficacy against coneworm: highly effective
Ips engravers beetles; after 24 days
  Percentage of Trees With Fading Crowns: 0.0 a %
Ips engravers beetles; after 32 days
  Percentage of Trees With Fading Crowns: 0.0 a %
Ips engravers beetles; after 39 days
  Percentage of Trees With Fading Crowns: 0.0 a %
Ips engravers beetles; after 46 days
  Percentage of Trees With Fading Crowns: 0.0 a %
Ips engravers beetles; after 52 days
  Percentage of Trees With Fading Crowns: 0.0 a %
Ips engravers beetles; after 66 days
  Percentage of Trees With Fading Crowns: 0.0 a %
Ips engravers beetles; bolt height 3 m
  Mean # of Egg Galleries Total Number: 0.0 a
  Mean # of Egg Galleries With Brood No.: 0.0 a
  Mean # of Egg Galleries Without Brood No.: 0.0 a
  Mean Length of Egg Galleries Total Length: 0.0 a cm
  Mean Length of Egg Galleries With Brood cm: 0.0 a cm
  Mean Length of Egg Galleries Without Brood cm: 0.0 a cm
  Mean # of Nuptial Chambers With Egg Galleries % of Total: 0.0%
  Mean # of Nuptial Chambers Without Egg Galleries % of Total: 100.0%
  Mean # of Nuptial Chambers Without Egg Galleries No.: 3.0 ab
  Mean # of Nuptial Chambers with Egg Galleries No.: 0.0 a
  Mean Total # of Nuptial Chambers: 3.0 a
Ips engravers beetles; bolt height 8 m
  Mean # of Egg Galleries Total Number: 0.0 a
  Mean # of Egg Galleries With Brood No.: 0.0 a
  Mean # of Egg Galleries Without Brood No.: 0.0 a
  Mean Length of Egg Galleries Total Length: 0.0 a cm
  Mean Length of Egg Galleries With Brood cm: 0.0 a cm
  Mean Length of Egg Galleries Without Brood cm: 0.0 a cm
  Mean # of Nuptial Chambers With Egg Galleries % of Total: 0.0%
  Mean # of Nuptial Chambers Without Egg Galleries % of Total: 100.0%
  Mean # of Nuptial Chambers Without Egg Galleries No.: 1.3 ab
  Mean # of Nuptial Chambers with Egg Galleries No.: 0.0 a
  Mean Total # of Nuptial Chambers: 1.3 a
Ips engravers beetles; cut bolts, both heights
  attacks on cut bolts compared to the check: significantly fewer
  success of attacks that did occur: completely unsuccessful
Ips engravers beetles; standing loblolly pine, after 24 days
  Mean # of Attacks/0.3 Bole Section at 3 m after 24 days, Ips: 0.5 a
Ips engravers beetles; standing loblolly pine, trap 2 m high
  Mean # of Ips caught/Trap: 1.2 a
Ips engravers beetles; standing trees, at 3 m height
  Ips attacks compared to checks: significantly fewer
Ips engravers beetles; standing trees, first evaluation
  trees with fading crowns (yellowing needles): None
Ips engravers beetles; standing trees, study discontinued after 66 days
  tree survival: all emamectin benzoate-treated trees survived
Cerambycid larvae; 1 Month Post Injection (May), bolt height 3 m
  Percent Phloem Area Consumed by Larvae: 2.2 a %
Cerambycid larvae; 1 Month Post Injection (May), bolt height 8 m
  Percent Phloem Area Consumed by Larvae: 0.0 a %
Cerambycid larvae; 3 Months Post Injection (July), bolt height 3 m
  Percent Phloem Area Consumed by Larvae: 0.0 a %
Cerambycid larvae; 3 Months Post Injection (July), bolt height 8 m
  Percent Phloem Area Consumed by Larvae: 0.0 a %
Cerambycid larvae; 5 Months Post Injection (September), bolt height 3 m
  Percent Phloem Area Consumed by Larvae: 0.0 a %
Cerambycid larvae; 5 Months Post Injection (September), bolt height 8 m
  Percent Phloem Area Consumed by Larvae: 0.0 a %
Cerambycid larvae; July and September series, bolts from 3 m
  cerambycid larval feeding or development: no larval feeding or development
Cerambycid larvae; bolts from 3 m
  reduction of cerambycid feeding damage: 93%
Cerambycid larvae; bolts from 8 m
  reduction of cerambycid feeding damage: 100%
